# Literature values in US20220323393A1, “COMPOSITIONS AND METHODS FOR TREATING AND/OR PREVENTING CARDIOVASCULAR DISEASE” (AMARIN PHARMACEUTICALS IRELAND LIMITED, priority 2010, published 2022).
# System: subjects with AAMI
# Conditions: 50 mg, Day 21 of repeated dosing
smiles,measurement,setting,value
CN[C@@H](C)C/C=C/c1cncc(OC(C)C)c1 [Ispronicline],Benefit to Power of Attention versus placebo,,61 ms
same,"Power of Attention, mean",SD=61.22,-32.54 ms
